For data set [1], the system named is CEM-TK(-). The data set can be described thus: Cytotoxicity against human CEM-TK(-) cells assessed as reduction in cell viability. The data set is classed as functional.
Data set [2] relates to Human immunodeficiency virus 1. The data set can be described thus: Anti-HIV activity against HIV-1 infected in human CEM-SS cells assessed as inhibition of viral replication. The data set is classed as functional, organism-based. Particulars: Human immunodeficiency virus 1, CEM-SS.
The subject of data set [3] is Human immunodeficiency virus 1. The data set can be described thus: Anti-HIV activity against HIV-1 infected in human MT4 cells assessed as inhibition of viral replication. It is filed as functional, organism-based. Particulars: Human immunodeficiency virus 1, MT4.
Data set [4] in a line: Cytotoxicity against human MT4 cells assessed as reduction in cell viability. The data set is classed as toxicity, cell-based.
Data set [5] deals with Human immunodeficiency virus 1. Briefly: Anti-HIV activity against HIV-1 infected in human CEM-TK(-) cells assessed as inhibition of viral replication. It is filed as functional, organism-based. Particulars: Human immunodeficiency virus 1, CEM-TK(-).
Data set [6] concerns CEM-SS. The data set can be described thus: Cytotoxicity against human CEM-SS cells assessed as reduction in cell viability. It is filed as functional.
The nature of data set [7]: Cytotoxicity against human MDM assessed as reduction in cell viability. It is filed as toxicity, cell-based.
The test system of data set [8] is Human immunodeficiency virus 1. The data set can be described thus: Anti-HIV activity against HIV-1 infected in human MDM assessed as inhibition of viral replication. The data set is classed as functional, organism-based.
Data set [9] can be described thus: Prodrug conversion in inactivated fetal calf serum with RPMI 1640 culture medium assessed as S-(O-pivaloyl-2-oxyethyl)O-2',3'-dideoxyadenosin-5'-yl phos-phorothiolate diester sodium salt metabolite formation at 0.00005 M measured at 50 to 150 hrs by HPLC analysis. The data set is classed as ADME, cell-free, Bos taurus. Particulars: cattle, 50 µM, time 50-150 hrs.

The nature of data set [10]: Stability of compound in human CEM-SS cell extract at pH 7.45 assessed as compound half life by HPLC analysis. The data set is classed as ADME, cell-based.
A short description of data set [11]: Stability of compound in phosphate buffer at pH 7.4 assessed as compound half life by HPLC analysis. It is filed as physicochemical.
Data set [12] can be described thus: Stability of compound in inactivated fetal calf serum with RPMI 1640 culture medium assessed as compound half life by HPLC analysis. It is filed as ADME, cell-free, Bos taurus. Particulars: cattle.
A short description of data set [13]: Cytotoxicity against human PBMC assessed as reduction in cell viability. It is filed as toxicity, cell-based.
Data set [14] can be described thus: Stability of compound in RPMI 1640 culture medium at pH 7.45 assessed as compound half life by HPLC analysis. The data set is classed as physicochemical.
The test system of data set [15] is Human immunodeficiency virus 1. Briefly: Anti-HIV activity against HIV-1 infected in human PBMC assessed as inhibition of viral replication. It is filed as functional, organism-based. Particulars: Human immunodeficiency virus 1, PBMC.
Data set [16] is described as follows: Prodrug conversion in human CEM-SS cell extract assessed as S-(O-pivaloyl-2-oxyethyl)O-2',3'-dideoxyadenosin-5'-yl phos-phorothiolate diester sodium salt metabolite formation at 0.00005 M measured at 5 to 15 hrs by HPLC analysis. Particulars: 50 µM, time 5-15 hrs. The data set is classed as ADME, cell-based.
Data set [17] can be described thus: Prodrug conversion in human CEM-SS cell extract assessed as ddAMP formation at 0.00005 M measured at 100 to 500 mins by HPLC analysis. Particulars: 50 µM, time 100-500 min. It is filed as ADME, cell-based.
Data set [18] is described as follows: Stability of compound in RPMI 1640 culture medium at pH 7.45 by HPLC analysis. The data set is classed as physicochemical. Particulars: buffer.
Data set [19] is described as follows: Stability of compound in phosphate buffer at pH 7.4 by HPLC analysis. The data set is classed as physicochemical.
A short description of data set [20]: Prodrug conversion in human CEM-SS cell extract assessed as metabolite X formation at 0.00005 M measured at 100 to 500 mins by HPLC analysis. The data set is classed as ADME, cell-based. Particulars: 50 µM, time 100-500 min.
Data set [21] is described as follows: Prodrug conversion in human CEM-SS cell extract assessed as O-((2S,5R)-5-(6-amino-9H-purin-9-yl)tetrahydrofuran-2-yl)methyl S-2-(pivaloylthio)ethyl phos-phorothioate sodium salt metabolite formation at 0.00005 M measured at 5 to 15 hrs by HPLC analysis. Particulars: 50 µM, time 5-15 hrs. It is filed as ADME, cell-based.
Data set [22] is described as follows: Prodrug conversion in human CEM-SS cell extract assessed as parent ddA formation at 0.00005 M measured at 50 to 150 hrs by HPLC analysis. It is filed as ADME, cell-based. Particulars: 50 µM, time 50-150 hrs.

Broadly, the CC50 is the concentration that lowers cell viability or growth by half. What is called EC50 is the midpoint of the concentration-response curve. What is called half-life is the time needed for the level to fall by half in the phase considered.

In the case of `Cc1cn([C@H]2C=C[C@@H](COP(=O)(SCCOC(=O)C(C)(C)C)SCCOC(=O)C(C)(C)C)O2)c(=O)[nH]c1=O`, the CC50 in data set [1] is 8000 nM; in data set [4], above 10000 nM; in data set [6], above 10000 nM. Also, the EC50 is 27 nM in data set [2], 99 nM in data set [3] and 5 nM in [5].

On to `Cc1cn([C@H]2C=C[C@@H](COP(=O)(OCCSC(=O)C(C)(C)C)OCCSC(=O)C(C)(C)C)O2)c(=O)[nH]c1=O`, for which the results for the CC50 in [1], in data set [4] and in data set [6] were 4600 nM, above 10000 nM and above 10000 nM, respectively. Besides, the concentration giving a half-maximal response (EC50) in data set [2] turned out to be 30 nM; in data set [3] it was 260 nM; in [5] it was 21 nM.

Consider `Cc1cn([C@H]2CC[C@@H](COP(=O)(SCCOC(=O)C(C)(C)C)SCCOC(=O)C(C)(C)C)O2)c(=O)[nH]c1=O`, for which the CC50 in data set [1], in data set [4] and in data set [6] was above 10000 nM each time. For the same molecule, the EC50 in [2] was found to be 80 nM; in data set [3] it was 900 nM; in [5] it was 50 nM.

With `CC(C)(C)C(=O)OCCSP(=O)(OC[C@@H]1CC[C@H](n2cnc3c(N)ncnc32)O1)SCCOC(=O)C(C)(C)C`, the CC50 in data set [7] was 8600 nM; in data set [4], above 1000 nM; in [13], above 10000 nM; in data set [6], above 10000 nM. Moreover, the concentration giving a half-maximal response (EC50) came to 0.23 nM in data set [8], 25 nM in [2], 270 nM in data set [3] and 20 nM in data set [15]. The Drug metabolism result in [9] and in data set [16] was “Metabolite_Detected” each time. The half-life in [10] is 5.3 h; in data set [11], 69.6 h; in [12], 38.4 h; in [14], 52.8 h.

As to `Nc1ncnc2c1ncn2[C@H]1CC[C@@H](CO)O1`, the CC50 in [7] was 100000 nM; in data set [4] it was above 100000 nM; in [13], above 100000 nM; in data set [6], above 100000 nM. Also, the EC50 stood at 120 nM in [8], 490 nM in data set [2], 7800 nM in data set [3] and 240 nM in data set [15].

As to `Cc1cn([C@H]2C=C[C@@H](CO)O2)c(=O)[nH]c1=O` [STAVUDINE], the CC50 in data set [1], in data set [4] and in [6] was above 100000 nM each time. Further, the EC50 in data set [2] was 59 nM; in data set [3], 280 nM; in data set [5], above 10000 nM.

On to `Cc1cn([C@H]2CC[C@@H](CO)O2)c(=O)[nH]c1=O`, for which the CC50 in data set [1], in data set [4] and in data set [6] was above 100000 nM in each case. The results for the EC50 in [2], in data set [3] and in data set [5] were 700 nM, 16000 nM and above 100000 nM, respectively.

Turning to `CC(C)(C)C(=O)SCCOP(=O)([O-])OC[C@@H]1CC[C@H](n2cnc3c(N)ncnc32)O1.[Na+]`, the Drug metabolism entry in [17] and in data set [20] was “Metabolite_Detected” throughout. Further, the Stability result in [18] and in data set [19] was “Stable” in each case.

On to `Cc1cn([C@H]2CC[C@@H](COP(=O)(OCCSC(=O)C(C)(C)C)OCCSC(=O)C(C)(C)C)O2)c(=O)[nH]c1=O`, for which the CC50 in [1], in [4] and in data set [6] was above 10000 nM in each case. For the same molecule, the EC50 stood at 220 nM in [2], 2500 nM in [3] and 50 nM in data set [5].

Regarding `CC(C)(C)C(=O)SCCOP(=O)(OCCSC(=O)C(C)(C)C)OC[C@@H]1C=C[C@H](n2cnc3c(N)ncnc32)O1`, the CC50 in [7] amounted to 3600 nM; in data set [4] it was 9000 nM; in data set [13] it was 1700 nM; in data set [6] it was 5900 nM. Moreover, the EC50 in [8] amounted to 0.16 nM; in data set [2], 18 nM; in data set [3] it was 320 nM; in data set [15] it was 47 nM. Moreover, the half-life in data set [10] is 1 h; in data set [11], 432 h; in [12], 166 h; in data set [14] it was 302 h. Also, the Drug metabolism result in data set [21] is listed as “Metabolite_Detected”.

For `Nc1ncnc2c1ncn2[C@H]1CC[C@@H](COP(=O)(O)O)O1`, in [22], the Drug metabolism entry was “Metabolite_Detected”.

On to `CC(C)(C)C(=O)OCCSP(=O)([O-])OC[C@@H]1CC[C@H](n2cnc3c(N)ncnc32)O1.[Na+]`, for which, in [17], the Drug metabolism result is on record as “Metabolite_Detected”. The Stability result in data set [18] and in data set [19] was “Stable” throughout.

The values above are taken from ChEMBL document CHEMBL5120747, “Mononucleoside phosphorodithiolates as mononucleotide prodrugs” (Eur J Med Chem, 2022).
